What all share (assay): growth of human tumour cells (NCI), 48 h
The subject of test [1] is DLD-1.
Test [2] has as its system DMS-114.
Test [3] relates to DMS-273.
Test [4] has as its system HOP-18.
In test [5] the test system is LXFL 529.
In test [6] the test system is M19-MEL.
The subject of test [7] is RXF 631.
Test [8] deals with SNB-78.
The test system of test [9] is XF498.

Experimental findings from ChEMBL document CHEMBL1201862, “PubChem BioAssay data set” (2004) are described below.

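The compound was tested at five concentrations on cells cultured in 96-well plates, with a 48-hour exposure period. GI50 = concentration required for 50% inhibition of growth.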 Active and inactive are the calls of the source. Rule as the data show it: active = GI50 up to about 1.1 µM and inactive = higher. Non-standard residues stand in square brackets, D forms with d. Residues, ends and D or L forms follow the SMILES beside them. *: point of attachment. NMeF = CN[CH](Cc1ccccc1)C(=O)O; NMeV = CN[CH](C(=O)O)C(C)C; Boc = CC(C)(C)OC(=O)* A value given as a limit tells only on which side of the number the result lay.

Turning to `Cc1ccccc1-n1c(N)c(-c2nc3ccccc3[nH]2)sc1=S`, the GI50 is 27.3 µM (inactive) in test [1]; 24.2 µM (inactive) in test [2]; 18.9 µM (inactive) in [3]; 30.2 µM (inactive) in test [4]; 22.1 µM (inactive) in test [5]; 23.3 µM (inactive) in [6]. Besides, the GI50 was 24.9 µM (inactive) in [7] and 32.4 µM (inactive) in test [8].

As for `CC1C2C=C(O)C(=O)C(C2=O)C1c1ccccc1` (stereo not drawn), the GI50 in [1] is > 100 µM (inactive); in test [3], > 100 µM (inactive); in test [5], > 100 µM (inactive); in test [6], > 100 µM (inactive); in test [7] it was > 100 µM (inactive); in test [8], 87.5 µM (inactive).

`CC1=CC(=O)N2C(OC[C@@H]2c2ccccc2)O1` (stereo partly drawn): the GI50 in test [1] was > 100 µM (inactive); in test [4], 20.7 µM (inactive); in test [5] it was > 100 µM (inactive); in [6], > 100 µM (inactive); in [9], > 100 µM (inactive).

In the case of `COc1ccc(OC)c(/C(C)=N/NC(N)=S)c1`, the GI50 in [1], in [2], in [3], in [4], in [5] and in test [6] was > 100 µM (inactive) in each case. Moreover, the GI50 in [8] and in test [9] was > 100 µM (inactive) each time.

Turning to `CC(C)C1CC[C@@H](C)C[C@@]1(O)CC(N)=O` (stereo partly drawn), the GI50 in [1], in test [2], in test [3], in test [4], in test [5] and in test [6] was > 100 µM (inactive) throughout. Also, the values for the GI50 in [7], in test [8] and in [9] were > 100 µM (inactive), > 100 µM (inactive) and 0.0344 µM (active), respectively.

As for `CC1=NC2(C(=O)O)C3(C(=O)O)N=C(C)OC3(C(F)(F)F)C2(C(F)(F)F)O1` (stereo not drawn), the GI50 in [1], in test [2], in [3], in test [4], in test [6] and in test [8] was > 100 µM (inactive) throughout. In addition, the GI50 in test [9] is > 100 µM (inactive).

Turning to `Cc1ccc(NC(=O)C(=O)CC(=O)c2ccccc2)cc1C`, the GI50 was > 100 µM (inactive) in test [1]; 86.9 µM (inactive) in test [2]; 56.8 µM (inactive) in [3]; > 100 µM (inactive) in test [4]; 76.9 µM (inactive) in [5]; > 100 µM (inactive) in test [6]. In addition, the GI50 in test [8] and in [9] was > 100 µM (inactive) in each case.

For the compound `O=C(CC(=O)N1N=C(n2ccc3ccccc32)CC1c1ccccc1)Nc1ccccc1Cl` (stereo not drawn), the GI50 in test [2], in test [3], in test [4], in test [5], in test [6] and in test [7] was > 100 µM (inactive) throughout. Moreover, the GI50 in [8] is > 100 µM (inactive).

On to `CCC1C(C)c2c([nH]c3ccccc23)C2C(=O)N(c3ccccc3)C(=O)C21` (stereo not drawn), for which the GI50 was 10.6 µM (inactive) in test [1]; 13.4 µM (inactive) in [2]; 17.8 µM (inactive) in [3]; 19.6 µM (inactive) in test [5]; 15.8 µM (inactive) in [6]; 13.5 µM (inactive) in test [7]. Also, the GI50 in test [8] was 19.2 µM (inactive); in test [9], 21.5 µM (inactive).

`CN(C)c1ccccc1CC(c1c[nH]c2ccccc12)c1c[nH]c2ccccc12`: the GI50 was 15.7 µM (inactive) in test [1]; 7.62 µM (inactive) in test [2]; 13 µM (inactive) in [3]; 14.9 µM (inactive) in test [6]; 14.4 µM (inactive) in test [8]; 17.3 µM (inactive) in test [9].

Consider `CC(=O)C1(O)CC2(c3ccccc3)C(=O)C1(c1ccccc1)C(c1ccccc1)=C2c1ccccc1` (stereo not drawn), for which the GI50 is > 100 µM (inactive) in [1]; 10.9 µM (inactive) in test [2]; 44.3 µM (inactive) in test [3]; > 100 µM (inactive) in test [5]; > 100 µM (inactive) in [6]; 89.1 µM (inactive) in test [7]. Moreover, the GI50 in test [8] was > 100 µM (inactive); in test [9], 6.24 µM (inactive).

On to `COc1cc(C2C(Cl)C(=O)N2NC(=O)c2ccc(NC(C)=O)cc2)ccc1O` (stereo not drawn), for which the GI50 in test [1], in test [2], in test [3], in test [5], in [6] and in test [8] was > 100 µM (inactive) each time. In test [9], the GI50 was > 100 µM (inactive).

Regarding `COc1cc(C(=O)C(CO)Oc2ccccc2OC)ccc1O` (stereo not drawn), the GI50 in test [1], in test [2], in test [3], in test [4], in [5] and in [6] was > 100 µM (inactive) each time. For the same compound, the GI50 in [7] and in test [8] was > 100 µM (inactive) in each case.

Turning to `CC(C)(C)C(=C[S+]([O-])/N=C/c1ccccc1)C(C)(C)C` (stereo not drawn), the GI50 was 31 µM (inactive) in test [1]; 28.1 µM (inactive) in [2]; 32.3 µM (inactive) in test [3]; 28.4 µM (inactive) in [5]; 36.1 µM (inactive) in test [6]; 38.6 µM (inactive) in test [7]. For the same compound, the GI50 in test [8] is 12.2 µM (inactive); in test [9] it was 23 µM (inactive).

Take `O=C1CCC(C(=O)O)C2=C1CCCC2` (stereo not drawn): the GI50 was > 100 µM (inactive) in test [1]; > 100 µM (inactive) in test [2]; 17.1 µM (inactive) in [3]; > 100 µM (inactive) in [4]; > 100 µM (inactive) in [5]; > 100 µM (inactive) in test [6]. Moreover, the GI50 in [8] and in [9] was > 100 µM (inactive) each time.

Consider `COc1ccc(-c2cc(=O)c3cc(O)ccc3o2)c(OC)c1OC`, for which the GI50 in test [1] was 36.4 µM (inactive); in [2] it was 27.9 µM (inactive); in test [5], 30.6 µM (inactive); in test [6], 45.3 µM (inactive); in test [7] it was 33.2 µM (inactive); in [9], 30.5 µM (inactive).

Regarding `c1cc2ccc1C1NCCCN1CCN1CCCNC1c1ccc(cc1)C1NCCCN1CCN1CCCNC21` (stereo not drawn), the GI50 in [1] was > 100 µM (inactive); in [2], > 100 µM (inactive); in test [3], > 100 µM (inactive); in test [4], > 100 µM (inactive); in test [5], 78.7 µM (inactive); in [6], 95.7 µM (inactive). In test [9], the GI50 was > 100 µM (inactive).

For the compound `Oc1ncnc2c1CCCN2`, the GI50 is > 100 µM (inactive) in test [1]; > 100 µM (inactive) in test [2]; 16.5 µM (inactive) in [4]; > 100 µM (inactive) in test [5]; > 100 µM (inactive) in test [6]; > 100 µM (inactive) in [8].

With `O=S(=O)(CC1=NC2C=CC=CC2N=C1)NCc1ccccc1` (stereo not drawn), the GI50 was > 100 µM (inactive) in [1]; > 100 µM (inactive) in [3]; > 100 µM (inactive) in test [4]; > 100 µM (inactive) in test [5]; > 100 µM (inactive) in [6]; 24.3 µM (inactive) in [9].

Take `CC(C)C(NC(=O)OC(C)(C)C)C(=O)N(C)C(Cc1ccccc1)C(=O)N(C)C(C(=O)O)C(C)C` (stereo not drawn) (Boc-Val-[NMeF]-[NMeV]-OH; configuration not given here): the GI50 in [2], in test [3], in [5], in [6] and in test [9] was > 100 µM (inactive) throughout.

As to `CN1CCCCC(C(O)(c2ccccc2)c2ccccc2)C1=O` (stereo not drawn), the GI50 in [1] is 39.4 µM (inactive); in test [2], 86.1 µM (inactive); in test [3] it was 44.1 µM (inactive); in [4], > 100 µM (inactive); in test [5], 81.7 µM (inactive); in [6], > 100 µM (inactive). Besides, the GI50 was 42.4 µM (inactive) in test [7], > 100 µM (inactive) in test [8] and > 100 µM (inactive) in test [9].

Turning to `N#CCC(=O)N1CCCOCCC1`, the GI50 in test [1], in test [2], in [3], in [5], in test [6] and in [7] was > 100 µM (inactive) throughout. The GI50 in test [8] is > 100 µM (inactive).

In the case of `COC1=CC(=O)c2c(O)c3c(c(O)c2C1=O)C[C@](C)(O)C[C@@H]3O`, the GI50 in test [1] was 1.31 µM (inactive); in test [2], 1.46 µM (inactive); in test [3], 1.57 µM (inactive); in test [5], 3.81 µM (inactive); in test [6], 0.296 µM (active); in test [7] it was 1.95 µM (inactive). Further, the GI50 in test [8] was 3.85 µM (inactive); in test [9], 2.86 µM (inactive).

In the case of `O=S1(=O)OCCOS(=O)(=O)C1(Br)Cc1ccccc1`, the GI50 in [1], in test [2], in test [3], in test [5], in [6] and in [8] was > 100 µM (inactive) each time. For the same compound, the GI50 in test [9] was > 100 µM (inactive).

As for `CC(C)N1CN(C(C(=O)N[C@@H]2C(=O)N3C2SC(C)(C)C3C(=O)O)c2ccc(O)cc2)CSC1=S` (stereo partly drawn), the GI50 in [1], in test [2], in test [3], in test [4], in test [5] and in test [6] was > 100 µM (inactive) each time. The GI50 in [8] and in test [9] was > 100 µM (inactive) each time.

Take `C#Cc1c(C)c(/C=C/C(C)=C/C(=O)OC)n(C)c1C`: the GI50 is 79.4 µM (inactive) in [1]; 36.1 µM (inactive) in test [2]; 88.7 µM (inactive) in test [3]; > 100 µM (inactive) in test [4]; 99.8 µM (inactive) in test [5]; > 100 µM (inactive) in [6]. Also, the GI50 in [8] was > 100 µM (inactive); in test [9], 77.3 µM (inactive).
